# Columns and labels:
# [1] = Cytotoxicity test, CCK-8, 24 h; type: cell-based; details: human, HCT-8 cells
# Experimental: (§1) Cell lines HCT-8 (3111C0001CCC000104) and A549 (3131C0001000700150) were obtained from National Infrastructure of Cell Line Resource (Beijing, China). SGC-7901 cell line was purchased from Suer Shengwu (Shanghai, China). All cells maintained in a humidified atmosphere at 37 °C and 5% CO2 in RPMI 1640 supplemented with 10% FBS and 1% Penicillin–Streptomycin solution. Cells were seeded in 96-well plates at a density of 8 * 10^3 cells per well and then incubated with various concentrations of 5-HMF and DHMF (Additional file 2: Table S2) for 24 h, respectively. Subsequently, culture supernatant was removed. HCT-8 cells were incubated in 100 μL fresh basal medium and 10 μL CCK-8 solution at 37 ℃ for 2 h. The optical density (OD) value of each well was measured at 450 nm using spectrophotometer (Multiskan Go 1510, Thermo, US); A549 and SGC-7901 cells were incubated in 100 μL MTT solution (1 mg/mL) at 37 ℃ for 4 h. Subsequently, the liquid was removed and dissolved the formazan with 150 μL DMSO, and the OD value was measured at 490 nm. Cell viability was given in a percentage of the control group. All data repeated for three times.
# [2] = Cytotoxicity test, MTT, 24 h; type: cell-based; details: human
# Experimental: as §1
# [3] = system: Female Sprague–Dawley rats; assay: Acute oral toxicity assessment (OECD 423)
# Experimental: The temperature in the experimental animal room was 22 ± 1 °C and the relative humidity was 60% ± 5%, additionally, lighting conditions was 12-h light/dark cycle.
# Twenty-four rats were randomly divided into five groups. Six rats were in the control group as well as the high-dose groups, and three rats were in the low-dose groups. Before the experiment, all rats needed to be […] overnight. Briefly, the control group received distilled water while experimental groups were orally treated with test compounds at a single dose of 300 mg/kg 5-HMF, 300 mg/kg DHMF, 2000 mg/kg 5-HMF, and 2000 mg/kg DHMF, respectively. The animals were monitored periodically during the first 24 h, especially the opening 30 min and 4 h, after drug oral treatment for any signs of toxicity. The rats were further observed for 14 days. Moreover, the body weight was measured at the first and last day. At the end of experiment, all rats were anaesthetized and their brains, hearts, lungs, livers, kidneys, and spleens were collected, weighed and observed macroscopically.
# [4] = system: human skin fibroblast cells; set-up: method as in Frade et al. [2014]; details: ref Frade et al. [2014]; cited from earlier work
# mice = system: mice; set-up: method as in Bauer Marinovic et al. [2012]; details: dose up to 536 mg/kg, drinking water for 12 weeks, ref Bauer Marinovic et al. [2012]; cited from earlier work
# [5] = rats, 300 mg/kg single oral dose, after 14 days, n = 3
# [6] = rats, 2000 mg/kg single oral dose, after 14 days, n = 6
smiles,measurement,setting,value
"OCc1ccc(CO)o1 [DHMF, 2,5-dihydroxymethylfuran]",IC50 at 24 h,[1],26.6 mM
same,IC50 at 24 h,[2]; A549 cells,0.697 mM
same,IC50 at 24 h,[2]; SGC-7901 cells,0.33 mM
same,"Organs index, Brain",[3]; [5],0.68 ± 0.09 g/100 g of body weight
same,"Organs index, Heart",[3]; [5],0.32 ± 0.02 g/100 g of body weight
same,"Organs index, Kidney",[3]; [5],0.75 ± 0.07 g/100 g of body weight
same,"Organs index, Liver",[3]; [5],3.04 ± 0.26 g/100 g of body weight
same,"Organs index, Lung",[3]; [5],0.47 ± 0.01 g/100 g of body weight
same,"Organs index, Spleen",[3]; [5],0.22 ± 0.04 g/100 g of body weight
same,"Organs index, Brain",[3]; [6],0.79 ± 0.07 g/100 g of body weight
same,"Organs index, Heart",[3]; [6],0.32 ± 0.04 g/100 g of body weight
same,"Organs index, Kidney",[3]; [6],0.75 ± 0.06 g/100 g of body weight
same,"Organs index, Liver",[3]; [6],3.05 ± 0.17 g/100 g of body weight
same,"Organs index, Lung",[3]; [6],0.49 ± 0.03 g/100 g of body weight
same,"Organs index, Spleen",[3]; [6],0.22 ± 0.02 g/100 g of body weight
same,Abnormal behaviours,"[3]; rats, single oral dose 300 mg/kg, first 4 h, n = 3","During the first 30 min, all rats became quitter and slightly weaker than the control, and returned to normal within 1 h"
same,Abnormal behaviours,"[3]; rats, single oral dose 2000 mg/kg, first 4 h, n = 6","In the first 30 min, all rats were more active than control, then showed lethargic and dilatoriness, yet returned to normal after 30 min"
same,LD50 cut-off,"[3]; rats, single oral dose, OECD 423 annex 2c, starting dose 300 mg/kg",greater than 2000 mg/kg B.W.
"O=Cc1ccc(CO)o1 [5-HMF, 5-hydroxymethylfurfural]",IC50 at 24 h,[1],9.94 mM
same,IC50 at 24 h,[2]; A549 cells,7.14 mM
same,IC50 at 24 h,[2]; SGC-7901 cells,8.42 mM
same,Cytotoxicity,[4],none cytotoxic
same,Abnormal behaviours,"[3]; female, Sprague-Dawley, rat, in vivo, po, 300 mg/kg","During the first 30 min, all rats became quitter and slightly weaker than the control, and returned to normal within 1 h"
same,Abnormal behaviours,"[3]; female, Sprague-Dawley, rat, in vivo, po, 2000 mg/kg","Rat numbered 1 emerged convulsions, lethargy, convulsions, and limb weakness during the first 30 min, showed somnolence and decrease of animal heat in the next 30 min; others only behaved a quiet symptom, all rats returned to normal within 1 h"
same,LD50 cut-off,"[3]; rat, in vivo, po, 300 mg/kg",greater than 2000 mg/kg B.W.
same,"Organs index, Brain","[3]; rat, in vivo, po, 300 mg/kg",0.74 ± 0.02 g/100 g of body weight
same,"Organs index, Heart","[3]; rat, in vivo, po, 300 mg/kg",0.35 ± 0.03 g/100 g of body weight
same,"Organs index, Kidney","[3]; rat, in vivo, po, 300 mg/kg",0.75 ± 0.06 g/100 g of body weight
same,"Organs index, Liver","[3]; rat, in vivo, po, 300 mg/kg",3.06 ± 0.19 g/100 g of body weight
same,"Organs index, Lung","[3]; rat, in vivo, po, 300 mg/kg",0.52 ± 0.02 g/100 g of body weight
same,"Organs index, Spleen","[3]; rat, in vivo, po, 300 mg/kg",0.25 ± 0.01 g/100 g of body weight
same,"Organs index, Brain","[3]; rat, in vivo, po, 2000 mg/kg",0.74 ± 0.05 g/100 g of body weight
same,"Organs index, Heart","[3]; rat, in vivo, po, 2000 mg/kg",0.33 ± 0.02 g/100 g of body weight
same,"Organs index, Kidney","[3]; rat, in vivo, po, 2000 mg/kg",0.75 ± 0.07 g/100 g of body weight
same,"Organs index, Liver","[3]; rat, in vivo, po, 2000 mg/kg",2.83 ± 0.09 g/100 g of body weight
same,"Organs index, Lung","[3]; rat, in vivo, po, 2000 mg/kg",0.51 ± 0.04 g/100 g of body weight
same,"Organs index, Spleen","[3]; rat, in vivo, po, 2000 mg/kg",0.25 ± 0.06 g/100 g of body weight
same,Mortality,"[3]; rats, single oral dose 300 or 2000 mg/kg, 14-day observation",none of the rats died
same,Nephrotoxic effects,mice,mild nephrotoxic effects
